Source: ChEMBL document CHEMBL6115057, “Discovery and Optimization of a Covalent AKR1C3 Inhibitor” (J Med Chem, 2025)
Numbering of substitutions follows the chain as printed. Activity calls are given as the source filed them. No cut-off for these calls is given here.

Key:
[1] = target: T1, Aldo-keto reductase family 1 member C3 (Homo sapiens, UniProt P42330); assay: Inhibition of AKR1C3 in human COLO 205 cells by Cell based AKR activity assay
T1 sequence (P42330 whole entry): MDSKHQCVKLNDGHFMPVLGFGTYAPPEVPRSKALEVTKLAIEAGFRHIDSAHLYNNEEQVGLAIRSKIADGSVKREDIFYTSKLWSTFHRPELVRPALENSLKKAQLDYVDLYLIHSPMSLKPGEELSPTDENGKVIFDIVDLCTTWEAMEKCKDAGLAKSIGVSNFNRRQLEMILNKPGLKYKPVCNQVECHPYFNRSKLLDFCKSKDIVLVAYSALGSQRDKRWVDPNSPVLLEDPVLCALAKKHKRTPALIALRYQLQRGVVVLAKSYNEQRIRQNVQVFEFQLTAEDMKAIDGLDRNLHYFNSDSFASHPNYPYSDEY

[2] = target: T2, Aldo-keto reductase family 1 member C3 (Homo sapiens) (UniProt P42330); assay: Binding affinity to AKR1C3 in human COLO 205 cells assessed as interaction at Y24/Y55 at 100 uM measured after 4 hrs; assay type: cell-based
T2 sequence (whole entry): T1 sequence (P42330 whole entry)

[3] = target: T2, Aldo-keto reductase family 1 member C3 (Homo sapiens); assay: Inhibition of RJG-2121 probe labelling of AKR1C3 in human COLO 205 cells in presence of CuAAC Gel-Based (competitive ABPP) Chemical Proteomics Assay; assay type: cell-based
[4] = target: T3, Aldo-keto reductase family 1 member C1 (Homo sapiens) (UniProt Q04828); assay: Inhibition of RJG-2121 probe labelling of AKR1C1 (unknown origin) expressed in human HEK293T cells in presence of CuAAC measured by Gel-Based (competitive ABPP) Chemical Proteomics Assay; assay type: cell-based; conditions: time 5-120 min
T3 sequence (whole entry): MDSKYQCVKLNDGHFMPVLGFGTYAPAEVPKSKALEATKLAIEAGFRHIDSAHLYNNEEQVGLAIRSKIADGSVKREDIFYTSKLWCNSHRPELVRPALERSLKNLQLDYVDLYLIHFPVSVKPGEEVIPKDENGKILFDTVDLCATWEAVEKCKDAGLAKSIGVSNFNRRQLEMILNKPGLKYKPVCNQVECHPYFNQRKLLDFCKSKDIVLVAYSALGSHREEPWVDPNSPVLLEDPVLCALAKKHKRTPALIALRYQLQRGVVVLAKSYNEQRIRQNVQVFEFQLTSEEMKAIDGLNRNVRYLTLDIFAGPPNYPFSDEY

[5] = target: T4, Aldo-keto reductase family 1 member C2 (Homo sapiens, UniProt P52895); assay: Inhibition of AKR1C2 (unknown origin) in human HEK293T cells assessed as turnover of coumberone to coumberol by live cell coumberone reduction assay; assay type: cell-based
T4 sequence (P52895 whole entry): T3 sequence (whole entry) with T38V, R47H, L54V, C87S, V151M, R170H, Q172L

[6] = target: T5, Aldo-keto reductase family 1 member C1 (Homo sapiens, UniProt Q04828); assay: Inhibition of AKR1C1 (unknown origin) in human HEK293T cells assessed as turnover of coumberone to coumberol by live cell coumberone reduction assay; assay type: cell-based
T5 sequence (Q04828 whole entry): T3 sequence (whole entry)

[7] = target: T6, Aldo-keto reductase family 1 member C4 (Homo sapiens, UniProt P17516); assay: Inhibition of AKR1C4 (unknown origin) in human HEK293T cells assessed as turnover of coumberone to coumberol by live cell coumberone reduction assay; assay type: cell-based
T6 sequence (P17516 whole entry): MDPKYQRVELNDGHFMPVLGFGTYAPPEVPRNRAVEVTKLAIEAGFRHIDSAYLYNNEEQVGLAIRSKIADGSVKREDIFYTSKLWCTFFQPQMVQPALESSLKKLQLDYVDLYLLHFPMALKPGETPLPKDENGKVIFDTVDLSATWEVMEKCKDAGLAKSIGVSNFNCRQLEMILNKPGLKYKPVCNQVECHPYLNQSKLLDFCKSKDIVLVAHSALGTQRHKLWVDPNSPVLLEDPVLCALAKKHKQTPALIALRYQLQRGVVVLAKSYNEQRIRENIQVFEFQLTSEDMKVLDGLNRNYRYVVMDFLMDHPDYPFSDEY

[8] = species on record: Homo sapiens; assay: Selectivity ratio, ratio of IC50 for AKR1C1 (unknown origin) to AKR1C3 (unknown origin)
[9] = species on record: Homo sapiens; assay: Selectivity ratio, ratio of IC50 for AKR1C2 (unknown origin) to AKR1C3 (unknown origin)
[10] = species on record: Homo sapiens; assay: Selectivity ratio, ratio of IC50 for AKR1C4 (unknown origin) to AKR1C3 (unknown origin)
[11] = target: T2, Aldo-keto reductase family 1 member C3 (Homo sapiens); assay: Inhibition of TMT-SuTex labelling of AKR1C3 in human live COLO 205 cells assessed as competition ratio at 10 uM measured after 2 hrs relative to control; assay type: cell-based
[12] = target: T2, Aldo-keto reductase family 1 member C3 (Homo sapiens); assay: Inhibition of TMT-SuTex labelling of AKR1C3 in human live COLO 205 cells assessed as blockade of probe labelling at 10 uM measured after 2 hrs relative to control; assay type: cell-based
[13] = target: T2, Aldo-keto reductase family 1 member C3 (Homo sapiens); assay: Binding affinity to AKR1C3 in human live COLO 205 cells assessed as interaction at Y24 at 10 uM measured after 2 hrs; assay type: cell-based
[14] = target: Aldo-keto reductase family 1 member B10 (Homo sapiens) (UniProt O60218); assay: Binding affinity to AKR1B10 in human live COLO 205 cells assessed as interaction at Y49 by measuring competition ratio at 10 uM measured after 2 hrs relative to control; assay type: cell-based
Sequence of Aldo-keto reductase family 1 member B10 (Homo sapiens) (O60218 whole entry, looked up): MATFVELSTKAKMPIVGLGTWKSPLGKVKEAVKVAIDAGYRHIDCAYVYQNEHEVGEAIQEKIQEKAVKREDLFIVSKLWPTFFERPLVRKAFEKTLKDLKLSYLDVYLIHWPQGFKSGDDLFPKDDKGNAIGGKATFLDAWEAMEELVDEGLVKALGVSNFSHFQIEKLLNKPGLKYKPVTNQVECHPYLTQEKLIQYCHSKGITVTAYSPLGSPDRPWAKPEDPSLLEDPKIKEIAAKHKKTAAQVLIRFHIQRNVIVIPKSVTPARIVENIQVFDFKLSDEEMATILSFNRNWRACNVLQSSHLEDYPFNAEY

[15] = target: T3, Aldo-keto reductase family 1 member C1 (Homo sapiens); assay: Binding affinity to AKR1C1 in human live COLO 205 cells assessed as interaction at Y24/T126 by measuring competition ratio at 10 uM measured after 2 hrs relative to control; assay type: cell-based
[16] = target: T2, Aldo-keto reductase family 1 member C3 (Homo sapiens); assay: Binding affinity to AKR1C3 in human live COLO 205 cells assessed as interaction at Y272 by measuring competition ratio at 10 uM measured after 2 hrs relative to control; assay type: cell-based
[17] = target: T3, Aldo-keto reductase family 1 member C1 (Homo sapiens); assay: Inhibition of RJG-2121 probe labelling of AKR1C1 (unknown origin) expressed in human HEK293T cells in presence of CuAAC measured after 5 to 120 mins by Gel-Based (competitive ABPP) Chemical Proteomics Assay; assay type: cell-based; conditions: time 5-120 min
[18] = target: T7, Aldo-keto reductase family 1 member C2 (Homo sapiens) (UniProt P52895); assay: Inhibition of RJG-2121 probe labelling of AKR1C2 (unknown origin) expressed in human HEK293T cells in presence of CuAAC measured after 5 to 120 mins by Gel-Based (competitive ABPP) Chemical Proteomics Assay; assay type: cell-based; conditions: time 5-120 min
T7 sequence (whole entry): T3 sequence (whole entry) with T38V, R47H, L54V, C87S, V151M, R170H, Q172L

[19] = tested on: HEK293T; assay: Inhibition of RJG-2121 probe labelling of AKR1C4 (unknown origin) expressed in human HEK293T cells in presence of CuAAC measured after 5 to 120 mins by Gel-Based (competitive ABPP) Chemical Proteomics Assay; assay type: cell-based; conditions: time 5-120 min
[20] = target: T2, Aldo-keto reductase family 1 member C3 (Homo sapiens); assay: Inhibition of RJG-2121 probe labelling of AKR1C3 (unknown origin) expressed in human HEK293T cells in presence of CuAAC measured after 5 to 120 mins by Gel-Based (competitive ABPP) Chemical Proteomics Assay; assay type: cell-based; conditions: time 5-120 min
[21] = target: T3, Aldo-keto reductase family 1 member C1 (Homo sapiens); assay: Binding affinity to AKR1C1 in human COLO 205 cells assessed as interaction at Y55 at 100 uM measured after 4 hrs; assay type: cell-based
[22] = target: T7, Aldo-keto reductase family 1 member C2 (Homo sapiens); assay: Binding affinity to AKR1C2 in human COLO 205 cells assessed as interaction at Y55 at 100 uM measured after 4 hrs; assay type: cell-based

| Structure (SMILES) | IC50 [1] [nM] | also measured |
| --- | --- | --- |
| COc1ccccc1N1CCN(C(=O)c2ccc(S(=O)(=O)n3cnc(C4CC4)n3)cc2)CC1 | 87 | – |
| COc1ccccc1NC1CCN(C(=O)c2ccc(S(=O)(=O)n3cncn3)cc2)CC1 | 4700 | – |
| COc1ccccc1N1CCN(C(=O)c2ccc(S(=O)(=O)n3cnc(-c4ccncc4)n3)cc2)CC1 | 4200 | – |
| COc1ccccc1-c1ccc(NC(=O)c2ccc(S(=O)(=O)n3cncn3)cc2)cc1 | 8700 | – |
| COc1ccccc1N1CCN(C(=O)c2cccc(S(=O)(=O)n3cnc(-c4cccnc4)n3)c2)CC1 | > 10000 | – |
| COc1ccc(N2CCN(C(=O)c3ccc(S(=O)(=O)n4cncn4)cc3)CC2)cc1 | 950 | – |
| C#CCNC(=O)c1ccc(S(=O)(=O)n2cnc(C3CC3)n2)cc1 | – | Activity [2]: Active |
| COc1ccccc1N1CCN(C(=O)c2cccc(S(=O)(=O)n3cnc(C4CC4)n3)c2)CC1 | 9200 | – |
| C#CCNC(=O)c1ccc(S(=O)(=O)n2cnc(C3CCCCC3)n2)cc1 | – | Activity [2]: Active |
| COc1ccccc1N1CCN(C(=O)c2ccc(S(=O)(=O)n3cnc(-c4ccco4)n3)cc2)CC1 | 5000 | – |
| COc1ccccc1N1CCN(C(=O)c2ccc(S(=O)(=O)n3cnc(-c4ccccc4)n3)cc2)CC1 | 2700 | – |
| COc1ccccc1N1CCN(C(=O)c2ccc(S(=O)(=O)n3cnc(-c4cccc(F)c4)n3)cc2)CC1 | 620 | – |
| COc1ccccc1N1CCN(C(=O)c2cccc(S(=O)(=O)n3cnc(C4CCCCC4)n3)c2)CC1 | > 10000 | – |
| COc1ccccc1N1CCN(C(=O)c2ccc(S(=O)(=O)n3cnc(-c4ccc(F)cc4)n3)cc2)CC1 | 510 | – |
| COc1ccccc1N1CCN(C(=O)c2ccc(S(=O)(=O)n3cnc(-c4ccc(OC(F)(F)F)cc4)n3)cc2)CC1 | 1100 | – |
| COc1cccc(N2CCN(C(=O)c3ccc(S(=O)(=O)n4cncn4)cc3)CC2)c1 | 540 | – |
| O=C(c1ccc(S(=O)(=O)n2cncn2)cc1)N1CCN(c2ccc(I)cc2)CC1 | 330 | – |
| COc1ccccc1N1CCN(C(=O)c2ccc(S(=O)(=O)n3cnc(C4CCCCC4)n3)cc2)CC1 | 27 | inhibition [3]: Dose-dependent-effect; inhibition [4]: Time-dependent-effect; IC50 [5]: 23000 nM; IC50 [6]: 31000 nM; IC50 [7]: 6000 nM; Ratio IC50 [8]: 2380; Ratio IC50 [9]: 1770; Ratio IC50 [10]: 461; Ratio [11]: 0.25; inhibition [12]: > 75%; Activity [13]: Active; Ratio [14]: 1; Ratio [15]: 1; Ratio [16]: 1 |

| Structure (SMILES) | IC50 [1] [nM] | also measured |
| --- | --- | --- |
| COc1ccccc1N1CCN(C(=O)c2ccc(S(=O)(=O)n3cnc(C4CCC4)n3)cc2)CC1 | 62 | – |
| O=C(c1ccc(S(=O)(=O)n2cncn2)cc1)N1CCN(c2ccccn2)CC1 | 2600 | – |
| O=C(Nc1ccc(-c2ccccn2)cc1)c1ccc(S(=O)(=O)n2cncn2)cc1 | > 10000 | – |
| COc1ccccc1N1CCN(C(=O)c2cccc(S(=O)(=O)n3cncn3)c2)CC1 | > 10000 | Activity [3]: inactive; inhibition [17]: inactive; inhibition [18]: inactive; inhibition [19]: inactive; inhibition [20]: inactive |
| C#CCN(C)C(=O)c1ccc(S(=O)(=O)n2cnc(C3CC3)n2)cc1 | – | Activity [2]: Active |
| COc1ccccc1N1CCN(C(=O)c2ccc(S(=O)(=O)n3cnc(-c4ccc(Br)cc4)n3)cc2)CC1 | 980 | – |
| C#CCN(C)C(=O)c1ccc(S(=O)(=O)n2cncn2)cc1 | – | Activity [21]: Active; Activity [22]: Active |
| O=C(Nc1ccc(-c2ccccc2OC(F)(F)F)cc1)c1ccc(S(=O)(=O)n2cncn2)cc1 | > 10000 | – |
| C#CCN(C)C(=O)c1cccc(S(=O)(=O)n2cnc(C3CC3)n2)c1 | – | Activity [21]: Active; Activity [22]: Active |
| C#CCNC(=O)c1cccc(S(=O)(=O)n2cncn2)c1 | – | Activity [2]: Active |
| COc1ccc(-c2ncn(S(=O)(=O)c3ccc(C(=O)N4CCN(c5ccccc5OC)CC4)cc3)n2)cc1 | 500 | – |
| COc1ccccc1N1CCN(C(=O)c2ccc(S(=O)(=O)n3cncn3)cc2)CC1 | 2400 | – |
| NS(=O)(=O)c1ccc(-n2nc(CCCNC(=O)Nc3ccc(C(F)(F)F)cc3)cc2-c2ccccc2)cc1 | > 10000 | – |
| COc1ccccc1N1CCN(C(=O)c2ccc(S(=O)(=O)n3cnc(C4CCCC4)n3)cc2)CC1 | 41 | – |
| COc1ccccc1N1CCN(C(=O)c2ccc(S(=O)(=O)n3cnc(-c4ccc(C(F)(F)F)cc4)n3)cc2)CC1 | 930 | – |
| COc1ccccc1N1CCN(C(=O)c2ccc(S(=O)(=O)n3cnc(-c4ccccc4F)n3)cc2)CC1 | 4700 | – |
| COc1ccccc1N1CCN(C(=O)c2ccc(S(=O)(=O)n3cnc(-c4cccnc4)n3)cc2)CC1 | 7100 | – |
| COc1ccccc1N1CCN(C(=O)c2ccc(S(=O)(=O)n3cnc(-c4ccc(-c5ccccc5)cc4)n3)cc2)CC1 | > 10000 | – |
